These results are taken from US9358233B2, “Method for treating acute myeloid leukemia” (priority 2010, dated 2016).

The data set deals with patients with relapsed/refractory AML. The experiment in a line: Clinical trial of BI 6727 in combination with LD-Ara-C in AML patients. The class given is in vivo. On the procedure:
BI 6727 (350 mg) was administered as a one-hour intravenous infusion on Days 1+15 every 28 days in combination with fixed dose LD-Ara-C (low-dose cytarabine) (20 mg twice daily s.c. [subcutaneous]). The starting dose of BI 6727 was based on the MTD previously determined in solid tumor patients. Patients with no progression after the first cycle were allowed to continue treatment.

Where [1] appears, read: preliminary, 32 patients with relapsed/refractory AML, different BI 6727 doses in combination with LD-Ara-C.

In the case of `CC[C@@H]1C(=O)N(C)c2cnc(Nc3ccc(C(=O)N[C@H]4CC[C@H](N5CCN(CC6CC6)CC5)CC4)cc3OC)nc2N1C(C)C` [BI 6727, N-[trans-4-[4-(cyclopropylmethyl)-1-piperazinyl]cyclohexyl]-4-[[(7R)-7-ethyl-5,6,7,8-tetrahydro-5-methyl-8-(1-methylethyl)-6-oxo-2-pteridinyl]amino]-3-methoxy-benzamide], the MTD (BI 6727 d1+15q28d in combination with LD-Ara-C) is reported as 350 mg. Where the note is “human, in vivo”, the “DLTs as rated per protocol (kind)” value is “pneumonia, mucositis, hypersensitivity/allergic reaction and myocardial infarction”; the “Dose-limiting toxicities (DLTs), number of patients” value was “four”. Further, under “in combination with LD-Ara-C, AML patients”, the Clinical activity entry is “showed first signs of clinical activity”. For the same compound, under setting [1], the “Best response: incomplete blood count recovery (CRi) or complete remission (CR), number of patients” value is on record as “seven”; the “Best response: partial remission, number of patients” value was determined as 1 patients; the “Best response: temporarily stable blood values ("no change"), number of patients” value is given as “Six”; the “Progression during or at the end of the first-treatment cycle, number of patients” value is “Eleven”.
